What follows are compounds tested on HCC1937. Details: 72 h.
In short: (§1)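 The reported EC50 was fitted from percent-inhibition dose-response curves and censored at the highest concentration. Breast cancer cell lines (20 µl suspension) were added to 384-well plates containing compound in 5 µl medium and incubated 72 h, and viability was read with 2.5 µl CellTiter-Blue over 2 h at 37 °C at 560/590 nm. Each plate was normalised to vehicle and a positive kill control and checked by Z'-factor, and rows with zero drug sensitivity score were dropped.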

EC50, CellTiter-Blue viability | SMILES
3.82 µM | Cc1cc(Nc2cc(CN3CCOCC3)c3nc(C)c(Cc4ccc(Cl)cc4F)n3n2)n[nH]1
0.619 µM | N#Cc1ccc(COC[C@H]2O[C@@H](n3c(NCc4ccc(Cl)c(Cl)c4)nc4c(N)ncnc43)[C@H](O)[C@@H]2O)cc1
2.09 µM | Nc1cc(C(F)(F)F)c(-c2cc(N3CCOCC3)nc(N3CCOCC3)n2)cn1 [BKM-120]
0.578 µM | O=C(/C=C/c1cccc(S(=O)(=O)Nc2ccccc2)c1)NO [Belinostat]
0.961 µM | CCc1c2c(nc3ccc(OC(=O)N4CCC(N5CCCCC5)CC4)cc13)-c1cc3c(c(=O)n1C2)COC(=O)[C@]3(O)CC [Irinotecan]
5.96 µM | CNC(=O)c1cc(Oc2ccc(NC(=O)Nc3ccc(Cl)c(C(F)(F)F)c3)c(F)c2)ccn1 [Regorafenib]
0.121 µM | CC(C)C[C@@H](C(=O)N[C@H](C(=O)OC1CCCC1)c1ccccc1)[C@H](O)C(=O)NO [Tosedostat]

SMILES | EC50, CellTiter-Blue viability
O=C(Nc1ccncc1)C(=O)c1cn(Cc2ccc(Cl)cc2)c2ccccc12 [Indibulin] | 0.0181 µM
COCC1(CO)C(=O)C2CCN1CC2 (stereo unspecified) [Prima-1 Met] | 0.476 µM

These compounds were tested on Hs578T. Details: 72 h.
In short: as §1

SMILES | EC50, CellTiter-Blue viability
Cc1cc(Nc2cc(CN3CCOCC3)c3nc(C)c(Cc4ccc(Cl)cc4F)n3n2)n[nH]1 | 2.08 µM
COC(=O)c1ccc2c(c1)NC(=O)/C2=C(\Nc1ccc(N(C)C(=O)CN2CCN(C)CC2)cc1)c1ccccc1 [BIBF 1120] | 7.05 µM
Nc1cc(C(F)(F)F)c(-c2cc(N3CCOCC3)nc(N3CCOCC3)n2)cn1 [BKM-120] | 3.01 µM
O=C(/C=C/c1cccc(S(=O)(=O)Nc2ccccc2)c1)NO [Belinostat] | 1.89 µM
COc1cc2ncnc(Nc3ccc(F)c(Cl)c3)c2cc1OCCCN1CCOCC1 [Gefitinib] | 1.06 µM
O=C(Nc1ccncc1)C(=O)c1cn(Cc2ccc(Cl)cc2)c2ccccc12 [Indibulin] | 0.938 µM
O=C(Nc1cccnc1)N1CCC(Cc2cccc(Oc3ccc(C(F)(F)F)cn3)c2)CC1 [PF-3845] | 2.57 µM
COCC1(CO)C(=O)C2CCN1CC2 (stereo unspecified) [Prima-1 Met] | > 10 µM
CNC(=O)c1cc(Oc2ccc(NC(=O)Nc3ccc(Cl)c(C(F)(F)F)c3)c(F)c2)ccn1 [Regorafenib] | 6.69 µM
c1ccc2c(CCNc3ccc(Nc4ccncc4)cc3)c[nH]c2c1 [Serdemetan] | 1.54 µM
CC(C)C[C@@H](C(=O)N[C@H](C(=O)OC1CCCC1)c1ccccc1)[C@H](O)C(=O)NO [Tosedostat] | 2.14 µM
COc1cc2/c(=N/c3ccc(Br)cc3F)nc[nH]c2cc1OCC1CCN(C)CC1 [Vandetanib] | 2.06 µM

The compounds below were run on BT-474. Details: 72 h.
In short: as §1

EC50, CellTiter-Blue viability | SMILES
2.92 µM | Cc1cc(Nc2cc(CN3CCOCC3)c3nc(C)c(Cc4ccc(Cl)cc4F)n3n2)n[nH]1
1.85 µM | COC(=O)c1ccc2c(c1)NC(=O)/C2=C(\Nc1ccc(N(C)C(=O)CN2CCN(C)CC2)cc1)c1ccccc1 [BIBF 1120]
1.18 µM | Nc1cc(C(F)(F)F)c(-c2cc(N3CCOCC3)nc(N3CCOCC3)n2)cn1 [BKM-120]
0.889 µM | O=C(/C=C/c1cccc(S(=O)(=O)Nc2ccccc2)c1)NO [Belinostat]
1.01 µM | COc1cc2ncnc(Nc3ccc(F)c(Cl)c3)c2cc1OCCCN1CCOCC1 [Gefitinib]
8.6 µM | O=C(Nc1cccnc1)N1CCC(Cc2cccc(Oc3ccc(C(F)(F)F)cn3)c2)CC1 [PF-3845]
8.34 µM | CNC(=O)c1cc(Oc2ccc(NC(=O)Nc3ccc(Cl)c(C(F)(F)F)c3)c(F)c2)ccn1 [Regorafenib]
2.29 µM | COc1cc2/c(=N/c3ccc(Br)cc3F)nc[nH]c2cc1OCC1CCN(C)CC1 [Vandetanib]

SMILES | EC50, CellTiter-Blue viability
O=C(Nc1ccncc1)C(=O)c1cn(Cc2ccc(Cl)cc2)c2ccccc12 [Indibulin] | 0.0313 µM
COCC1(CO)C(=O)C2CCN1CC2 (stereo unspecified) [Prima-1 Met] | 4.53 µM

These compounds were tested on SK-BR-3. Details: 72 h.
In short: as §1

EC50, CellTiter-Blue viability | SMILES
3.18 µM | Cc1cc(Nc2cc(CN3CCOCC3)c3nc(C)c(Cc4ccc(Cl)cc4F)n3n2)n[nH]1
6.1 µM | N#Cc1ccc(COC[C@H]2O[C@@H](n3c(NCc4ccc(Cl)c(Cl)c4)nc4c(N)ncnc43)[C@H](O)[C@@H]2O)cc1
1.05 µM | COc1cc(OC2CCN(C)CC2)ccc1Nc1ncc2c(n1)n(C1CCCC1)c(=O)n2C [AZ 3146]
7.75 µM | COC(=O)c1ccc2c(c1)NC(=O)/C2=C(\Nc1ccc(N(C)C(=O)CN2CCN(C)CC2)cc1)c1ccccc1 [BIBF 1120]
0.257 µM | Nc1cc(C(F)(F)F)c(-c2cc(N3CCOCC3)nc(N3CCOCC3)n2)cn1 [BKM-120]
0.2 µM | O=C(/C=C/c1cccc(S(=O)(=O)Nc2ccccc2)c1)NO [Belinostat]
1.58 µM | COc1cc2ncnc(Nc3ccc(F)c(Cl)c3)c2cc1OCCCN1CCOCC1 [Gefitinib]
3.74 µM | CCc1c2c(nc3ccc(OC(=O)N4CCC(N5CCCCC5)CC4)cc13)-c1cc3c(c(=O)n1C2)COC(=O)[C@]3(O)CC [Irinotecan]
6.5 µM | Cc1ccc(NC(=O)c2ccc(CN3CCN(C)CC3)cc2)cc1Nc1nc(-c2cccnc2)cs1 [Masitinib]
4.33 µM | COc1cc2/c(=N/c3ccc(Br)cc3F)nc[nH]c2cc1OCC1CCN(C)CC1 [Vandetanib]

SMILES | EC50, CellTiter-Blue viability
O=C(Nc1ccncc1)C(=O)c1cn(Cc2ccc(Cl)cc2)c2ccccc12 [Indibulin] | 0.0261 µM

Each compound was assayed on MDA-MB-468. Details: 72 h.
In short: as §1

EC50, CellTiter-Blue viability | SMILES
1.15 µM | Cc1cc(Nc2cc(CN3CCOCC3)c3nc(C)c(Cc4ccc(Cl)cc4F)n3n2)n[nH]1
6.91 µM | N#Cc1ccc(COC[C@H]2O[C@@H](n3c(NCc4ccc(Cl)c(Cl)c4)nc4c(N)ncnc43)[C@H](O)[C@@H]2O)cc1
5.61 µM | COC(=O)c1ccc2c(c1)NC(=O)/C2=C(\Nc1ccc(N(C)C(=O)CN2CCN(C)CC2)cc1)c1ccccc1 [BIBF 1120]
2.33 µM | Nc1cc(C(F)(F)F)c(-c2cc(N3CCOCC3)nc(N3CCOCC3)n2)cn1 [BKM-120]
1.94 µM | O=C(/C=C/c1cccc(S(=O)(=O)Nc2ccccc2)c1)NO [Belinostat]
0.808 µM | COc1cc2ncnc(Nc3ccc(F)c(Cl)c3)c2cc1OCCCN1CCOCC1 [Gefitinib]
1.43 µM | CCc1c2c(nc3ccc(OC(=O)N4CCC(N5CCCCC5)CC4)cc13)-c1cc3c(c(=O)n1C2)COC(=O)[C@]3(O)CC [Irinotecan]
> 10 µM | O=C(Nc1cccnc1)N1CCC(Cc2cccc(Oc3ccc(C(F)(F)F)cn3)c2)CC1 [PF-3845]
7.8 µM | CNC(=O)c1cc(Oc2ccc(NC(=O)Nc3ccc(Cl)c(C(F)(F)F)c3)c(F)c2)ccn1 [Regorafenib]
5.6 µM | CN(C)CCOc1ccc(/C(=C(/CCCl)c2ccccc2)c2ccccc2)cc1 [Toremifene]
0.0359 µM | CC(C)C[C@@H](C(=O)N[C@H](C(=O)OC1CCCC1)c1ccccc1)[C@H](O)C(=O)NO [Tosedostat]
3.33 µM | COc1cc2/c(=N/c3ccc(Br)cc3F)nc[nH]c2cc1OCC1CCN(C)CC1 [Vandetanib]

SMILES | EC50, CellTiter-Blue viability
O=C(Nc1ccncc1)C(=O)c1cn(Cc2ccc(Cl)cc2)c2ccccc12 [Indibulin] | 0.0618 µM

The compounds below were run on MFM-223. Details: 72 h.
In short: as §1

SMILES | EC50, CellTiter-Blue viability
Cc1cc(Nc2cc(CN3CCOCC3)c3nc(C)c(Cc4ccc(Cl)cc4F)n3n2)n[nH]1 | 0.0835 µM
COC(=O)c1ccc2c(c1)NC(=O)/C2=C(\Nc1ccc(N(C)C(=O)CN2CCN(C)CC2)cc1)c1ccccc1 [BIBF 1120] | 0.555 µM
Nc1cc(C(F)(F)F)c(-c2cc(N3CCOCC3)nc(N3CCOCC3)n2)cn1 [BKM-120] | 1.36 µM
O=C(/C=C/c1cccc(S(=O)(=O)Nc2ccccc2)c1)NO [Belinostat] | 0.605 µM
O=C(Nc1ccncc1)C(=O)c1cn(Cc2ccc(Cl)cc2)c2ccccc12 [Indibulin] | 0.377 µM
CCc1c2c(nc3ccc(OC(=O)N4CCC(N5CCCCC5)CC4)cc13)-c1cc3c(c(=O)n1C2)COC(=O)[C@]3(O)CC [Irinotecan] | 9.11 µM
CNC(=O)c1cc(Oc2ccc(NC(=O)Nc3ccc(Cl)c(C(F)(F)F)c3)c(F)c2)ccn1 [Regorafenib] | 0.706 µM
CC(C)C[C@@H](C(=O)N[C@H](C(=O)OC1CCCC1)c1ccccc1)[C@H](O)C(=O)NO [Tosedostat] | 2.23 µM
COc1cc2/c(=N/c3ccc(Br)cc3F)nc[nH]c2cc1OCC1CCN(C)CC1 [Vandetanib] | 0.926 µM

Each compound was assayed on MDA-MB-231. Details: 72 h.
In short: as §1

EC50, CellTiter-Blue viability | SMILES
1.75 µM | Cc1cc(Nc2cc(CN3CCOCC3)c3nc(C)c(Cc4ccc(Cl)cc4F)n3n2)n[nH]1
2.87 µM | N#Cc1ccc(COC[C@H]2O[C@@H](n3c(NCc4ccc(Cl)c(Cl)c4)nc4c(N)ncnc43)[C@H](O)[C@@H]2O)cc1
8.03 µM | COc1cc(OC2CCN(C)CC2)ccc1Nc1ncc2c(n1)n(C1CCCC1)c(=O)n2C [AZ 3146]
4.16 µM | COC(=O)c1ccc2c(c1)NC(=O)/C2=C(\Nc1ccc(N(C)C(=O)CN2CCN(C)CC2)cc1)c1ccccc1 [BIBF 1120]
1.91 µM | Nc1cc(C(F)(F)F)c(-c2cc(N3CCOCC3)nc(N3CCOCC3)n2)cn1 [BKM-120]
0.684 µM | O=C(/C=C/c1cccc(S(=O)(=O)Nc2ccccc2)c1)NO [Belinostat]
> 10 µM | COc1cc2ncnc(Nc3ccc(F)c(Cl)c3)c2cc1OCCCN1CCOCC1 [Gefitinib]

Source: the supplement of paper PMC4862054
